Measurements taken from PubChem BioAssay (NCI).
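Growth conditions: 96-well plates. Treatment: test compound, 48 hours, 5 concentrations. Analysis: linear interpolation between bracketing concentrations; unreached endpoints set to highest concentration. The concentration for 50% growth inhibition is given as GI50. TGI denotes the concentration required for complete inhibition of growth.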

What was measured:
Assay in all cases: NCI tumour cell line growth inhibition, 48 h
[1] = system: 786-0 renal
[2] = system: A498 renal
[3] = system: A549 NSCLC
[4] = system: ACHN renal
[5] = system: BT-549 breast
[6] = system: CAKI-1 renal
[7] = system: CCRF-CEM leukemia
[8] = system: COLO 205 colon
[9] = system: DU-145 prostate
[10] = system: EKVX NSCLC
[11] = system: HCC-2998 colon
[12] = system: HCT-116 colon
[13] = system: HCT-15 colon
[14] = system: HL-60(TB) leukemia
[15] = system: HOP-62 NSCLC
[16] = system: HOP-92 NSCLC
[17] = system: HS 578T breast
[18] = system: HT29 colon
[19] = system: IGROV1 ovarian
[20] = system: K-562 leukemia
[21] = system: KM12 colon
[22] = system: LOX IMVI melanoma
[23] = system: M14 melanoma
[24] = system: MALME-3M melanoma
[25] = system: MCF7 breast
[26] = system: MDA-MB-231 breast
[27] = system: MDA-MB-435
[28] = system: MOLT-4 leukemia
[29] = system: NCI-H226 lung
[30] = system: NCI-H23 lung
[31] = system: NCI-H460 lung
[32] = system: NCI-H522 lung
[33] = system: NCI/ADR-RES ovarian
[34] = system: OVCAR-3 ovarian
[35] = system: OVCAR-4 ovarian
[36] = system: OVCAR-5 ovarian
[37] = system: OVCAR-8 ovarian
[38] = system: PC-3 prostate
[39] = system: RPMI-8226 leukemia
[40] = system: RXF 393 renal
[41] = system: SF-268 CNS
[42] = system: SF-295 CNS
[43] = system: SF-539 CNS
[44] = system: SK-MEL-2 melanoma
[45] = system: SK-MEL-28 melanoma
[46] = system: SK-MEL-5 melanoma
[47] = system: SK-OV-3 ovarian
[48] = system: SN12C renal
[49] = system: SNB-19 CNS
[50] = system: SNB-75 CNS
[51] = system: SR leukemia
[52] = system: SW-620 colon
[53] = system: T-47D breast
[54] = system: TK-10 renal
[55] = system: U251 CNS
[56] = system: UACC-257 melanoma
[57] = system: UACC-62 melanoma
[58] = system: UO-31 renal

COc1c(Nc2ncc(Cl)c(N[C@@H]3[C@H]4C=CC(C4)[C@@H]3C(N)=O)n2)ccc2c1CC[C@@H](N1CCOCC1)CC2
GI50 [1]: 1.97 µM
TGI [1]: 12.2 µM
GI50 [2]: 1.39 µM
TGI [2]: 4.79 µM
GI50 [3]: 4.02 µM
TGI [3]: 17.5 µM
GI50 [4]: 2.66 µM
TGI [4]: 24.3 µM
GI50 [5]: 3.66 µM
TGI [5]: 14.8 µM
GI50 [6]: 3.08 µM
TGI [6]: 14.2 µM
GI50 [7]: 5.25 µM
TGI [7]: 39.2 µM
GI50 [8]: 1.74 µM
TGI [8]: 5.5 µM
GI50 [9]: 4.88 µM
TGI [9]: 27.2 µM
GI50 [10]: 1.3 µM
TGI [10]: 10.2 µM
GI50 [11]: 9.61 µM
TGI [11]: 23.6 µM
GI50 [12]: 2.52 µM
TGI [12]: 10.3 µM
GI50 [13]: 3.28 µM
TGI [13]: 15.3 µM
GI50 [14]: 4.86 µM
TGI [14]: 20.6 µM
GI50 [15]: 2.08 µM
TGI [15]: 15 µM
GI50 [16]: 1.05 µM
TGI [16]: 6.77 µM
GI50 [17]: 1.88 µM
TGI [17]: 9 µM
GI50 [18]: 2.68 µM
TGI [18]: 10.6 µM
GI50 [19]: 5.3 µM
TGI [19]: 35.8 µM
GI50 [20]: 5.52 µM
TGI [20]: 59.7 µM
GI50 [21]: 4.93 µM
TGI [21]: 25.2 µM
GI50 [22]: 2.11 µM
TGI [22]: 6.23 µM
GI50 [23]: 2.14 µM
TGI [23]: 12.7 µM
GI50 [24]: 1.7 µM
TGI [24]: 14.6 µM
GI50 [25]: 2.01 µM
TGI [25]: 17.1 µM
GI50 [26]: 2.24 µM
TGI [26]: 9.36 µM
GI50 [27]: 2.72 µM
TGI [27]: 15.7 µM
GI50 [28]: 4.05 µM
TGI [28]: 35.5 µM
GI50 [29]: 3.81 µM
TGI [29]: 30.2 µM
GI50 [30]: 6.02 µM
TGI [30]: 24.7 µM
GI50 [31]: 4.19 µM
TGI [31]: 18.2 µM
GI50 [32]: 5.47 µM
TGI [32]: 15 µM
GI50 [33]: 4.58 µM
TGI [33]: 24.4 µM
GI50 [34]: 7.06 µM
TGI [34]: 24.5 µM
GI50 [35]: 3.68 µM
TGI [35]: 23 µM
GI50 [36]: 1.4 µM
TGI [36]: 17.8 µM
GI50 [37]: 6.59 µM
TGI [37]: 29.6 µM
GI50 [38]: 3.94 µM
TGI [38]: 23.7 µM
GI50 [39]: 4.28 µM
TGI [39]: 28.5 µM
GI50 [40]: 1.64 µM
TGI [40]: 6.54 µM
GI50 [41]: 4.71 µM
TGI [41]: 20.8 µM
GI50 [42]: 4.47 µM
TGI [42]: 17.8 µM
GI50 [43]: 2.3 µM
TGI [43]: 8.01 µM
GI50 [44]: 3.39 µM
TGI [44]: 11.9 µM
GI50 [45]: 3.25 µM
TGI [45]: 17.7 µM
GI50 [46]: 5.81 µM
TGI [46]: 19.2 µM
GI50 [47]: 3.43 µM
TGI [47]: 15.2 µM
GI50 [48]: 3.87 µM
TGI [48]: 29.2 µM
GI50 [49]: 9.37 µM
TGI [49]: 29.5 µM
GI50 [50]: 1.59 µM
TGI [50]: 5.89 µM
GI50 [51]: 0.43 µM
TGI [51]: 5.64 µM
GI50 [52]: 2.51 µM
TGI [52]: 10.2 µM
GI50 [53]: 7.78 µM
TGI [53]: 25.5 µM
GI50 [54]: 1.7 µM
TGI [54]: 15.9 µM
GI50 [55]: 3.2 µM
TGI [55]: 15.7 µM
GI50 [56]: 4.81 µM
TGI [56]: 19.8 µM
GI50 [57]: 2.81 µM
TGI [57]: 18.8 µM
GI50 [58]: 2.07 µM
TGI [58]: 10.7 µM

Cc1nc(NC(=O)COc2cccc(/C=C3\COc4ccccc4C3=O)c2)sc1C
GI50 [1]: 1.73 µM
TGI [1]: 3.22 µM
GI50 [2]: 12.6 µM
TGI [2]: 25.2 µM
GI50 [3]: 3.7 µM
TGI [3]: 12.4 µM
GI50 [4]: 1.85 µM
TGI [4]: 3.77 µM
GI50 [5]: 1.59 µM
TGI [5]: 3.28 µM
GI50 [6]: 1.5 µM
TGI [6]: 3.41 µM
GI50 [7]: 3.42 µM
TGI [7]: > 100 µM
GI50 [8]: 1.96 µM
TGI [8]: 3.88 µM
GI50 [9]: 2.1 µM
TGI [9]: 4.09 µM
GI50 [10]: 1.24 µM
TGI [10]: 3.12 µM
GI50 [11]: 1.94 µM
TGI [11]: 3.49 µM
GI50 [12]: 1.53 µM
TGI [12]: 3.04 µM
GI50 [13]: 2.04 µM
TGI [13]: 5.2 µM
GI50 [14]: 2.8 µM
TGI [14]: > 29.9 µM
GI50 [15]: 1.71 µM
TGI [15]: 3.37 µM
GI50 [16]: 1.69 µM
TGI [16]: 3.83 µM
GI50 [17]: 2.72 µM
TGI [17]: 8.6 µM
GI50 [18]: 1.89 µM
TGI [18]: 4.14 µM
GI50 [19]: 0.43 µM
TGI [19]: 0.902 µM
GI50 [20]: 3.1 µM
TGI [20]: > 100 µM
GI50 [21]: 1.5 µM
TGI [21]: 2.92 µM
GI50 [22]: 1.01 µM
TGI [22]: 2.55 µM
GI50 [23]: 1.83 µM
TGI [23]: 3.75 µM
GI50 [24]: 1.79 µM
TGI [24]: 4.11 µM
GI50 [25]: 0.665 µM
TGI [25]: 2.83 µM
GI50 [26]: 2.63 µM
TGI [26]: 7.41 µM
GI50 [27]: 2.14 µM
TGI [27]: 5.74 µM
GI50 [28]: 3.5 µM
TGI [28]: > 100 µM
GI50 [29]: 3.32 µM
TGI [29]: 9.66 µM
GI50 [30]: 1.92 µM
TGI [30]: 4.12 µM
GI50 [31]: 3.19 µM
TGI [31]: 11.3 µM
GI50 [32]: 1.89 µM
TGI [32]: 4.41 µM
GI50 [33]: 3.12 µM
TGI [33]: 9.79 µM
GI50 [34]: 1.83 µM
TGI [34]: 3.27 µM
GI50 [35]: 4.02 µM
TGI [35]: 13.9 µM
GI50 [36]: 1.94 µM
TGI [36]: 3.88 µM
GI50 [37]: 2.36 µM
TGI [37]: 5.78 µM
GI50 [38]: 1.76 µM
TGI [38]: 4.05 µM
GI50 [39]: 14.8 µM
TGI [39]: > 100 µM
GI50 [40]: 1.78 µM
TGI [40]: 3.48 µM
GI50 [41]: 1.85 µM
TGI [41]: 3.5 µM
GI50 [42]: 1.64 µM
TGI [42]: 3.33 µM
GI50 [43]: 1.73 µM
TGI [43]: 3.46 µM
GI50 [44]: 1.62 µM
TGI [44]: 3.17 µM
GI50 [45]: 1.79 µM
TGI [45]: 3.32 µM
GI50 [46]: 1.86 µM
TGI [46]: 3.81 µM
GI50 [47]: 8.97 µM
TGI [47]: 21.3 µM
GI50 [48]: 2.01 µM
TGI [48]: 4.63 µM
GI50 [49]: 3.38 µM
TGI [49]: 13.6 µM
GI50 [50]: 5.49 µM
TGI [50]: 18.7 µM
GI50 [51]: 0.872 µM
TGI [51]: > 100 µM
GI50 [52]: 1.08 µM
TGI [52]: 2.39 µM
GI50 [53]: 2.9 µM
TGI [53]: 10.4 µM
GI50 [54]: 2.31 µM
TGI [54]: 4.08 µM
GI50 [55]: 1.54 µM
TGI [55]: 2.9 µM
GI50 [56]: 2.88 µM
TGI [56]: 8.13 µM
GI50 [57]: 2.05 µM
TGI [57]: 4.51 µM
GI50 [58]: 0.704 µM
TGI [58]: 1.63 µM
